Measured values as given in patent publication US20080242688A1, “Method 741” (ASTRAZENECA AB, priority 2007, published 2008).

Assays:
[1] = Pharmacological activity of metabolite
Procedure: Pyridinyl methylation of AZD0328 was a unique polar metabolite (M2) observed in dog hepatocytes. Other minor hydroxylation/oxidation and glucuronide conjugation products were detected in monkey, dog, rat, and guinea pig hepatocyte incubations and mini-pig hepatic microsome incubations. […] Analysis of plasma and urine samples from either orally or iv dosed rats confirmed N-oxide product of AZD0328 was a main product in the excretion and circulation. The percentage of AZD0328 N-oxide in the plasma from male rats was much higher than from females.

Rat QWBA study = format: in vivo; conditions: single oral dose
Procedure: AZD0328 is a low protein binding molecule across species including human (<15%) across the concentration range 21.6 to […] (0.1 to 100 μM). In most species, the binding was concentration and gender independent. […] [14C]-AZD0328-derived radioactivity was rapidly distributed to the organs and tissues with high levels of radioactivity associated with the contents of the GI tract and the major excretion organs, including kidney and liver. The radioactivity declined rapidly and by 168 h postdose radioactivity levels were not detectable in most tissues, with the exception of a few ocular tissues and nasal turbinates. […] Notable association of [^14C]-AZD0328-related radioactivity with the melanin-containing tissues was observed, with measurable radioactivity still present in the ocular tissues at 216 h postdose. [14C]-AZD0328-derived radioactivity crossed the placenta.

[2] = Mass balance of [14C]-AZD0328 in rats; format: in vivo, rat
Procedure: In the mass balance study conducted in fed rats, a Tmax of 0.5 h to 1 h was observed following single and multiple oral doses (solution). The bioavailability of AZD0328 (total radioactivity) in this study was >90%. […] Generally speaking, the elimination was complete within the 24-hour interval at the dose levels tested.
Pharmacokinetics and mass balance of [^14C]-AZD0328 were investigated in rats. The excretion of [^14C]-AZD0328-derived radioactivity in rats was mainly through the kidney. Over the course of the study, radioactivity recovered in urine and feces accounted for approximately 85% and 8%, respectively.

SMILES	pharmacological activity of metabolite [1]	time of maximum blood and plasma concentrations of radioactivity (Rat QWBA study)	radioactivity recovered in feces [2]	radioactivity recovered in urine [2]
[O-][N+]12CCC(CC1)C1(Cc3cccnc3O1)C2 (stereo not shown) [quinuclidinyl-N-oxide of AZD0328]	pharmacological inactive			
c1cnc2c(c1)C[C@@]1(CN3CCC1CC3)O2 [[^14C]-AZD0328]		0.5 h	~8%	approximately 85%
